Experimental data from patent publication US11332430B1, “Pleuromulin lauric acid ester with antibacterial activity and a method of preparing the same” (priority 2021, dated 2022).

Columns and labels:
[1] = system: MRSA-596; assay: paper diffusion method drug sensitivity test, MRSA-596; format: cell-based, Staphylococcus aureus; conditions: 30 μg/tablet, 37° C., 24 h, ≥17 mm sensitive, 15-16 mm intermediary, ≤14 mm drug resistance
Experimental: (§1) The antimicrobial efficacy was determined by a paper diffusion method drug sensitivity test.
(§2) Experimental strains: multi-resistant Staphylococcus aureus 171, multi-resistant Staphylococcus aureus 575, multi-resistant Staphylococcus aureus 596. The experimental strain was identified by Huashan Hospital Affiliated to Fudan University (Institute of Antibiotic of Fudan University).
(§3) Drug sensitive paper: The drug sensitive paper is a special drug sensitive paper with a diameter of 6.35 mm and a water absorption of 0.02 mL. The control was vancomycin (30 μg/tablet); the test compounds were pleuromulin (30 μg/tablet), lauric acid (30 μg/tablet) and pleuromulin lauric acid ester (30 μg/tablet).
(§4) The experimental strains were inoculated in non-selective medium and placed in air at 37° C. for 24 h. A single colony that grows well and inoculate it into broth medium was incubate at 35° C.±2° C. for 6 hours, and LA broth medium was used to calibrate the concentration of the bacterial solution to 0.5 Mie turbidimetric tube (1.5×10^8 CFU/mL). A bacterial suspension was obtained.
(§5) LB dry powder was weighed, sterilized at 103.4 Kpa, 121.3° C. high-pressure steam for 15 min, and then placed it in a 40° C.-50° C. water bath. A sterile empty plate (inner diameter 9 cm) was placed on the surface of the ultra-clean table water table, and […] was poured to the plate. The thickness of each plate was 3 mm to 4 mm. After the plate was cooled at room temperature, it was stored in the refrigerator at 2° C.-8° C. A sterile cotton swab was used to dip the bacterial solution and ti evenly coat the surface of the LB plate 3 times. After inoculation of the bacterial suspension, the LB plate was dried at room temperature for 3 min to 5 min. Sterile forceps were used to closely attach the antibacterial drug paper to the dish. The dish was put upside down and placed in a 37° C. incubator for 24 h. The results were observed by measuring the diameter. Taking 0.5% DMSO solution as a negative control, the antibacterial activity is expressed by the diameter of the inhibition zone. The inhibition zone ≥17 mm, sensitive; the inhibition zone of 15 mm-16 mm, intermediary; the inhibition zone ≤14 mm, drug resistance.

[2] = system: MRSA-206; assay: paper diffusion method drug sensitivity test, MRSA-206; format: cell-based, Staphylococcus aureus; conditions: 30 μg/tablet, 37° C., 24 h, ≥17 mm sensitive, 15-16 mm intermediary, ≤14 mm drug resistance
[3] = system: MRSA-575; assay: paper diffusion method drug sensitivity test, MRSA-575; format: cell-based, Staphylococcus aureus; conditions: 30 μg/tablet, 37° C., 24 h, ≥17 mm sensitive, 15-16 mm intermediary, ≤14 mm drug resistance
Experimental: as §1, §2, §3, §4, §5

[4] = system: multi-drug resistant Staphylococcus aureus 206, 575, 596; assay: paper diffusion method drug sensitivity test, summary over the strains; format: cell-based; conditions: 30 μg/tablet
Experimental: as §1, §2, §3, §4, §5

[5] = listed as Pleuromutilin lauric acid derivative

Row | SMILES | Zone of inhibition [1] | Zone of inhibition [2] | Zone of inhibition [3] | inhibitory effect on drug-resistant bacteria (in words) [4] | Zone of inhibition [3, 5] | inhibitory effect on drug-resistant bacteria (in words) [4, 5]
1 | CCCCCCCCCCCC(=O)O [Laurie acid, Lauric acid] | 0 mm | 0 mm | 0 mm | no inhibitory effect |  | 
2 | C=C[C@]1(C)C[C@@H](OC(=O)CO)[C@]2(C)[C@H](C)CC[C@]3(CCC(=O)[C@H]32)[C@@H](C)[C@@H]1O [Pleuromulin] | 0 mm | 0 mm | 0 mm | no inhibitory effect |  | 
3 | C=C[C@]1(C)C[C@@H](OC(=O)COC(=O)CCCCCCCCCCC)[C@]2(C)CC[C@@H](C)[C@@]3(CCC(=O)[C@@H]23)[C@@H](C)[C@@H]1O [Pleuromulinlauric acid ester, 2-(((3aS,4R,5S,6S,8R,9R,9aR,12R)-5-hydroxy-4,6,9,12-tetramethyl-1-oxo-6-vinyldecahydro-3a,9-propanocyclopenta[8]annulen-8-yl)oxy)-2-oxoethyl Dodecanoate] | 12 mm | 13 mm | 25 mm | excellent antibacterial activity | up to 25 mm | strong inhibitory effects
4 | CN[C@H](CC(C)C)C(=O)N[C@H]1C(=O)N[C@@H](CC(N)=O)C(=O)N[C@H]2C(=O)N[C@H]3C(=O)N[C@H](C(=O)N[C@H](C(=O)O)c4cc(O)cc(O)c4-c4cc3ccc4O)[C@H](O)c3ccc(c(Cl)c3)Oc3cc2cc(c3O[C@@H]2O[C@H](CO)[C@@H](O)[C@H](O)[C@H]2O[C@H]2C[C@](C)(N)[C@H](O)[C@H](C)O2)Oc2ccc(cc2Cl)[C@H]1O [Vancomycin] | 23 mm | 15 mm | 17 mm |  |  | 
